Literature values in patent US12201712B2, “Method for dyeing keratinous material, comprising the use of an organosilicon compound, a phosphoric acid ester and a dyeing compound” (Henkel AG & Co. KGaA, priority 2020, dated 2025).

Row | SMILES | solubility in water (25° C.) | also measured
1 | O=S(=O)(O)c1ccc(N=Nc2c(O)ccc3ccccc23)cc1 [Acid Orange 7, 4-[(2-hydroxy-1-naphthyl)azo]benzene sulphonate] | more than 7 g/L | 
2 | O=C(O)C1=NN(c2ccc(S(=O)(=O)O)cc2)C(=O)C1N=Nc1ccc(S(=O)(=O)O)cc1 (stereo not shown) [Acid Yellow 23, 4,5-dihydro-5-oxo-1-(4-sulfophenyl)-4-((4-sulfophenyl)azo)-1H-pyrazole-3-carboxylic acid] |  | solubility in water (in words) (at 25° C.): readily soluble in water
3 | CCN(Cc1cccc(S(=O)(=O)O)c1)c1ccc(C(=C2C=CC(=[N+](CC)Cc3cccc(S(=O)(=O)O)c3)C=C2)c2ccccc2S(=O)(=O)[O-])cc1 [Acid Blue 9] |  | water solubility (25° C.): greater than 20 wt. %
4 | O=[N+]([O-])c1cc([N+](=O)[O-])c2ccc(S(=O)(=O)O)cc2c1O [Acid Yellow 9, 8-hydroxy-5,7-dinitro-2-naphthalenesulfonic acid] | above 40 g/L | 
